Source: patent publication US20230355773A1, “[…] DRUG CONJUGATES” (P.I.F. Entrepreneurs Ltd., priority 2020, published 2023)
Where two headings read alike, the source gives them in different places.

How the values were obtained:
[1] = fasted mice
Experimental: CC57BL/6 mice aged approximately 9 weeks were weighed and acclimated to facility conditions. Animals were assigned to 3 treatment groups based on their body weights, creating homogenous groups of 5 mice in each group. After fasting, blood glucose of levels of mice were tested at time 0, at which time the test drug was administered, then subsequently at 30, 60, 90 and 120 minutes post administration, using blood glucose test strips.

[2] = test system: cytokines levels after LPS induction; conditions: 100 µg per mouse s.c.
[3] = test system: neuroinflammatory response induced by LPS; conditions: I5 100 µg per mouse s.c.
Experimental: 120 mice (female C57BL/6) mice approximately 6 weeks old were assigned into groups based on body weight, creating homogenous groups, and acclimated to facility conditions over 5 days.
A neuroinflammatory response was induced in all mice by intraperitoneal administration of 5 mg/kg of LPS. […] Group 2: dexamethasone at […]. Group 3: Vehicle. Test items were administered at the following time points: 30 minutes before LPS injection, 2 hours post-LPS injection and 10 hours post LPS injection (where applicable). 10 animals from each group were sacrificed at the following time points: 4, 8, 24 and 48 hours post LPS administration. Brains were collected and preserved in buffered 4% formaldehyde. Bronchoalveolar lavage fluid was extract from lungs of all animals.

[4] = in vivo; conditions: female, ICR, mouse
[5] = female, ICR, mouse, in vivo
[6] = test system: activated macrophages (THP1 monocytes transformed with PMA, infected with Leishmania donovani); conditions: for activated macrophage survival: 0.1, 1 and 10 µg/ml, 12-14 hours of incubation, FIG. 1
Experimental: (§1) A macrophage killing assay was performed in order to determine potential of conjugates described herein for treatment of macrophage-related diseases. THP1 monocytes were transformed into macrophages for using phorbol myristate acetate (PMA). […] The data shown in FIG. 1 represents macrophage survival percent after 12-14 hours of incubation with conjugates. […] In the figure, series 1 represents control macrophages which were not infected. Series 2, 3 and 4 represent the 0.1, 1 and 10 µg/ml dosages. The values shown in these series represented number of cells, as normalized to control, non-infected macrophages.
(§2) Media used for macrophage assay: RPMI with 10% FCS, supplemented with pencillin streptomycin and glutamine. The compounds were prepared in phosphate buffered saline with pH adjusted to 7.6 and were used immediately after preparation.
Infection of macrophage: The macrophages were infected with 5x times with Leishmania donovani - for a density of 1x10^5 monocytes transformed to macrophage, the infection density is 5 x 10^5 L.donovani.
(§3) The experiment was performed according to the following schedule: • Monocyte to macrophage transformation: 0 to 48 hours • Macrophage Infection with Leishmania: 48-84 hours • Treatment with compound: 84 - 96 hours • Plate used for assay: Microscopy compatible glass bottom plate -24 wells.
The macrophages that were alive were counted in five different fields of the wells for different concentration and the average count was used for the assay. Based on the count of the control macrophages, the % was adjusted.

[7] = test system: non-infected macrophages (THP1 monocytes transformed with PMA); conditions: 10 µg/ml, live imaging, 8 hours, FIG. 2
Experimental: as §1, with “FIG.” for “FIG. 1 represents macrophage survival percent after 12-14 hours of incubation with conjugates.”
as §2, §3

[8] = 24 hours following LPS induction
[9] = plasma, parameters used for estimating t½
[10] = plasma, single IV, I5 200 mg/kg, dexamethasone sodium phosphate 40 mg/kg

Compound: C[C@@H]1C[C@H]2[C@@H]3CCC4=C/C(=N/OCCCO[C@H]5O[C@H](CO)[C@@H](O)[C@H](O)[C@@H]5O)C=C[C@]4(C)[C@@]3(F)[C@@H](O)C[C@]2(C)[C@@]1(O)C(=O)CO [Compound I5, 1-((8S,9R,10S,11S,13S,14S,16R,17R,E)-9-Fluoro-11,17-Dihydroxy-10,13,16-Trimethyl-3-((3-(((2S,3S,4S,5S,6R)-3,4,5–Trihydroxy-6-(Hydroxymethyl)Tetrahydro-2H-Pyran-2-yl)oxy)propoxy)imino)-6,7,8,9,10,11,12,13,14,15,16,17-Dodecahydro-3H-cyclopenta[a]phenanthren-17-yl)-2-Hydroxyethan-1-One]
- blood glucose relative to baseline ([1]; 100 µg per mouse, 30 to 120 minutes post-administration): not increased above baseline
- blood glucose relative to baseline ([1]; 2500 µg per mouse (25-fold molar equivalent of 65 µg dexamethasone)): no elevation of blood glucose level
- blood-brain barrier penetration, evidenced by CNS cytokine levels ([2]; LPS model): able to penetrate the blood-brain barrier
- Cytokines levels in Bronchoalveolar lavage fluid ([2]; IL-1 a and MCP1 (4 Hr. post LPS), MCP1 (8 Hr. post LPS)): immunomodulatory effect
- Cytokines levels in brains ([2]; IL-2 (4 and 8 Hr. post LPS), IL-10 (8 Hr.), VEGF a (8 and 24 Hr.), vs groups 2 and 3): immunomodulatory effect
- Cytokines levels in serum ([2]; IL-17 and RANTES (4 Hr. post LPS), LIF (8 Hr. post LPS)): immunomodulatory effect
- Clinical score - Appearance ([3]; 24 Hr. following LPS induction, vs groups 2 and 3): best clinical score
- Clinical score - Eye condition [3, 8]: best clinical score
- Clinical score - Response to stimulus [3, 8]: best clinical score
- Total clinical score ([3]; compared to groups 2 and 3): best clinical score
- half-life ([4]; T½, plasma, table Parameters used for estimating t½ in plasma): 4.23 h
- Tmax ([4]; iv): 5 min
- clearance ([4]; iv): 178 mL/min/kg
- half-life ([4]; iv, T½, plasma, single IV, I5 200 mg/kg, dexamethasone sodium phosphate 40 mg/kg, table PK parameters in plasma): 4.23 h
- Vd ([4]; iv, Vss, plasma, single IV, I5 200 mg/kg, dexamethasone sodium phosphate 40 mg/kg): 12.1 L/kg
- Vd ([4]; iv, Vz, plasma, single IV, I5 200 mg/kg, dexamethasone sodium phosphate 40 mg/kg): 65.3 L/kg
- Vd ([4]; iv, distribution volume, Vss, plasma, IV): 12.1 L/kg
- half-life ([4]; iv, terminal elimination half-life in plasma, mice after IV dosing): ~4.2 h
- Concentration in brain (CSF) (pooled) [5]: 29.4 ng/mL
- pooled CSF levels detected ([5]; iv): 6.86 to 29.4 ng/mL
- CSF levels as fold the LLOQ (5.00 ng/mL) ([5]; iv, 200 mg/kg): 1.4-5.9 fold
- time to killing of activated macrophages ([6]; 10 µg/ml, live imaging, FIG. 2): ≤ 8 h
- activated macrophage survival [6]: particularly effective
- relative systemic exposure (200 mg Compound I5 compared to 40 mg Dexamethasone): 4.2%
- elimination curve in plasma (mice after IV dosing): two-phase elimination curve
- AUC%Extrap [9]: 0.403%
- Lambda z [9]: 0.164 h⁻¹
- AUCINF/Dose (plasma, single IV): 93.4 h^∗ng/mL/mg/kg
- Exprel, relative systemic exposure [AUCinf/dose (Compound I5)/AUCinf/dose (Dexamethasone)] x 100 (plasma, single IV, I5 200 mg/kg vs dexamethasone 40 mg/kg): 4.2%
- CL [10]: 178.33 mL/min/kg
- Tlast [10]: 24.0 h
- effect on macrophages not activated by infection [7]: remained unchanged

Compound: CC(CC(=O)N/N=C(\CO)[C@@]1(O)[C@H](C)C[C@H]2[C@@H]3CCC4=CC(=O)C=C[C@]4(C)[C@@]3(F)C(O)C[C@@]21C)O[C@H]1OC(CO)[C@@H](O)C(O)C1O (stereo partly shown) [MD4]
- activated macrophage survival [6]: particularly effective

Compound: C[C@@H]1C[C@H]2[C@@H]3CCC4=CC(=O)C=C[C@]4(C)[C@@]3(F)C(O)C[C@]2(C)[C@@]1(O)C(=O)CO (stereo partly shown) [dexamethasone, reference compound]
- increase of blood sugar levels (change from baseline) ([1]; dexamethasone 65 mg (so in the source), 30 to 120 minutes post administration): about 15%
